Reference: PMC6102643, “Different Benzodiazepines Bind with Distinct Binding Modes to GABAA Receptors” (ACS Chemical Biology, 2018)

How the values were obtained:
[1] = test system: α2-containing GABAA receptors; parameters: method as in PMID 20727364; settings: versus SH-053-2′F-S-CH3; cited from earlier work
GABAA receptors = test system: GABAA receptors; parameters: method as in PMID 17392731, PMID 20727364; settings: cited from earlier work
[2] = test system: α1-, α3-, and α5-containing GABAA receptors; parameters: method as in PMID 20727364; settings: versus SH-053-2′F-S-CH3; cited from earlier work
α2β3γ2-GABAA receptors = target: T1, α2β3γ2-GABAA receptors (Rattus norvegicus, UniProt P18508+P23576); experiment: Two-electrode voltage clamp recordings, α2β3γ2 in Xenopus laevis oocytes; format: cell-based; settings: GABA eliciting 3% of maximum current; for activity in the oocyte assay at drug concentrations of ≤1 μM: drug ≤1 μM
T1 construct: expressed in transfected cells; host or cells: Xenopus laevis oocytes (mRNA injected)
Text: Radioligand displacement assays provide information about the binding of a compound to only a specific binding site. To exclude the possibility that compounds 2-R and 3-R bind at a site different from the [^3H]flunitrazepam binding site (and are therefore unable to compete with the radioligand), we decided to determine the efficacies of all our test compounds using two-electrode voltage clamp recordings on α2β3γ2-mRNA-treated Xenopus laevis oocytes (see Figure 5).
Figure 5 Concentration–response curves of drug-induced enhancement of GABA currents. X. laevis oocytes were treated with mRNA for α2β3γ2-GABAA receptors and studied using two-electrode voltage clamp recordings. GABA-induced currents (3% of maximum) were modulated by addition of drug. Data are means ± the standard error of the mean of three independent experiments.
(§1) Radioligand displacement assays were performed in HEK-293 cells transfected with recombinant rat αxβ3γ2 receptors (x = 1, 2, 3, or 5) using 2 nM [^3H]flunitrazepam and 1 nM to 10 μM investigated compound as described previously.[20] Two-electrode voltage clamp recordings were performed on X. laevis oocytes treated with mRNA for the desired subunit combination at a GABA concentration eliciting 3% of the maximum current.[21]

[3] = target: T2, recombinant rat GABAA receptor α1β3γ2 (Rattus norvegicus, UniProt P18508+P62813); experiment: [3H]flunitrazepam radioligand displacement, α1β3γ2; format: binding
T2 construct: expressed in transfected cells; host or cells: HEK-293
Method: (§2) To exclude a binding behavior unique to α2-containing receptors, we also performed similar radioligand displacement studies on other receptor combinations such as recombinantly expressed rat GABAA receptor subtypes α1β3γ2, α3β3γ2, and α5β3γ2 (see Figure S2).
as §1
(§3) Inhibition of [3H]flunitrazepam binding to recombinant α1β3γ2, α2β3γ2, α3β3γ2, α5β3γ2 GABA A
(§4) receptors subtypes. Membranes from HEK 293 cells transfected with GABAA receptor
(§5) subunit combination, (α1β3γ2, α2β3γ2, α3β3γ2, α5β3γ2) were incubated with 2 nM
(§6) [3H]flunitrazepam in the presence of various concentrations of GABAA -R ligands investigated.
(§7) Data shown represent mean ± SEM of three experiments performed in duplicates each. […]

[4] = target: T3, recombinant rat GABAA receptor α3β3γ2 (Rattus norvegicus, UniProt P18508+P20236); experiment: [3H]flunitrazepam radioligand displacement, α3β3γ2; format: binding
T3 construct: expressed in transfected cells; host or cells: HEK-293
Method: as §2, §1, §3, §4, §5, §6, §7

[5] = test system: α1β3γ2, α3β3γ2, and α5β3γ2 GABAA receptors; experiment: Two-electrode voltage clamp recordings, other receptor combinations in oocytes; format: cell-based; settings: α1β3γ2, α3β3γ2, α5β3γ2 (and α2β3γ2); Figure S3
Method: In addition to the analysis of α2β3γ2-containing GABAA receptors, we also performed similar electrophysiological studies of other receptor combinations such as α1β3γ2, α3β3γ2, and α5β3γ2 (see Figure S3).
as §1

[6] = target: T4, recombinant rat GABAA receptor α2β3γ2 (Rattus norvegicus, UniProt P18508+P23576); experiment: [3H]flunitrazepam radioligand displacement, α2β3γ2; format: binding; settings: for displacement of [3H]flunitrazepam at α2β3γ2 (in words): 2 nM [3H]flunitrazepam, HEK-293 membranes
T4 construct: expressed in transfected cells; host or cells: HEK-293
Method: To test our predictions, we performed radioligand displacement studies and compared the potencies of our six chiral benzodiazepine ligands for the inhibition of binding of [^3H]flunitrazepam to α2β3γ2 recombinant rat GABAA receptor subtypes (see Figure 4).
Figure 4 Inhibition of binding of [^3H]flunitrazepam to recombinant α2β3γ2 GABAA receptor subtypes. Membranes from HEK-293 cells transfected with the GABAA receptor subunit combination α2β3γ2 were incubated with 2 nM [^3H]flunitrazepam in the presence of various concentrations of the six BZ site ligands. Data shown are the means ± the standard error of the mean of three independent experiments each performed in duplicate.
as §1, §3, §4, §5, §6, §7

[7] = test system: recombinant rat αxβ3γ2 receptors (x = 1, 2, 3, or 5); experiment: [3H]flunitrazepam radioligand displacement, all receptor subtypes tested; format: binding; settings: for displacement of [3H]flunitrazepam in all receptor subtypes (in words): α1β3γ2, α2β3γ2, α3β3γ2, α5β3γ2, even at high micromolar concentrations for non-binders; for subtype selectivity of binding (in words): across α1, α2, α3, α5 subtypes
Method: as §2
However, we did observe differences in the potency rank order.
as §1

[8] = target: T5, recombinant rat GABAA receptor α5β3γ2 (Rattus norvegicus, UniProt P18508+P19969); experiment: [3H]flunitrazepam radioligand displacement, α5β3γ2; format: binding; settings: for preference / selectivity for α5-containing receptors: binding affinity at α5 versus other receptor subtypes
T5 construct: expressed in transfected cells; host or cells: HEK-293
Method: as §2, §1, §3, §4, §5, §6, §7

T5 sequence (P19969 32-464 limits assumed): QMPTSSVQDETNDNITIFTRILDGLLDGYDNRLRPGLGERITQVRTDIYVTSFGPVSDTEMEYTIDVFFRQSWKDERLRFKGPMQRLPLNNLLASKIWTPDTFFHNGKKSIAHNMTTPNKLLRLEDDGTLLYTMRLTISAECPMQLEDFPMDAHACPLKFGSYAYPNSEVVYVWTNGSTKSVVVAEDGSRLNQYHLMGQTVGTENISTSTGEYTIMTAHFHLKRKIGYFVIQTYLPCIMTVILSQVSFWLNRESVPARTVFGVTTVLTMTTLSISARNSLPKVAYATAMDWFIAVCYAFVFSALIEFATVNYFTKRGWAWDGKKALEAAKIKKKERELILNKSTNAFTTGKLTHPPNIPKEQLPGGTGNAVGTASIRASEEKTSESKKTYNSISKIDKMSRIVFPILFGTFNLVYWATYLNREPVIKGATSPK
T5 sequence (P63079 26-473 partner): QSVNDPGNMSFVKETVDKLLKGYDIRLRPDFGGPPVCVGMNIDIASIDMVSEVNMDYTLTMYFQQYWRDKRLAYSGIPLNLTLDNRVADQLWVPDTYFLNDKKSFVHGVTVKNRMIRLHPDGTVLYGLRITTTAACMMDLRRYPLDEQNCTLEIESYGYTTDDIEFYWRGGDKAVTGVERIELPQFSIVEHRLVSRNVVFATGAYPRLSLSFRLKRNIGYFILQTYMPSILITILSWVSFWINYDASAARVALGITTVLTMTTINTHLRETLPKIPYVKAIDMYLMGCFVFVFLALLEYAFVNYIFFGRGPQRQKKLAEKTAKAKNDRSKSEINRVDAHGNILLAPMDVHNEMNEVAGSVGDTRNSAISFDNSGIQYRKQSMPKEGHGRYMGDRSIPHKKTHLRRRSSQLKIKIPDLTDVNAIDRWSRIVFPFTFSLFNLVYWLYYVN
T5 sequence (P18508 39-466): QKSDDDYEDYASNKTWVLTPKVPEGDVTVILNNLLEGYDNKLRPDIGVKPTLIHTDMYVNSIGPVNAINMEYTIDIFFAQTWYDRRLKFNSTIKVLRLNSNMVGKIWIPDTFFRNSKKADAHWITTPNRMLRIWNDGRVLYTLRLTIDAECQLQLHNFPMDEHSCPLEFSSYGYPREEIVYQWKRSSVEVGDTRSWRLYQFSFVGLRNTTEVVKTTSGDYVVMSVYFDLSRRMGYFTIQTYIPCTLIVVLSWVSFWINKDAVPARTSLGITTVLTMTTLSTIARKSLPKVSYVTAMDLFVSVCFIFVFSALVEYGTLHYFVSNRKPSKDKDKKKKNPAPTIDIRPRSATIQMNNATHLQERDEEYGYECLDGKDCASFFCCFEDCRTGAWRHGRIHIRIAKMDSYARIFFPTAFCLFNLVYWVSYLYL
T3 sequence (P20236 29-493): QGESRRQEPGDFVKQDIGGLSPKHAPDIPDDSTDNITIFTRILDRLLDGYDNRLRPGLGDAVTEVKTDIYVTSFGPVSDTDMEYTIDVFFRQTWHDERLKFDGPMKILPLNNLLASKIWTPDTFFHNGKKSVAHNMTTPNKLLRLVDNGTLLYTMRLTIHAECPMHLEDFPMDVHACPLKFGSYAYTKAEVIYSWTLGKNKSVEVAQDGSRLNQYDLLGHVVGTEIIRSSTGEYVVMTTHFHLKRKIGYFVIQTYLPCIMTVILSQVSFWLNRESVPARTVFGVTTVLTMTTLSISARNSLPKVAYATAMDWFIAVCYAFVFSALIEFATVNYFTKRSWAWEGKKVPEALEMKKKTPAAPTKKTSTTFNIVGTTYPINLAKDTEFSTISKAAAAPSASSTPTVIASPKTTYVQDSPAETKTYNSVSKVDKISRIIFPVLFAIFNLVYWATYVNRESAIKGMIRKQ
T3 sequence (P63079 26-473 partner): as the sequence (P63079 26-473 partner) above
T3 sequence (P18508 39-466): as the sequence (P18508 39-466) above
T2 sequence (P62813 28-455): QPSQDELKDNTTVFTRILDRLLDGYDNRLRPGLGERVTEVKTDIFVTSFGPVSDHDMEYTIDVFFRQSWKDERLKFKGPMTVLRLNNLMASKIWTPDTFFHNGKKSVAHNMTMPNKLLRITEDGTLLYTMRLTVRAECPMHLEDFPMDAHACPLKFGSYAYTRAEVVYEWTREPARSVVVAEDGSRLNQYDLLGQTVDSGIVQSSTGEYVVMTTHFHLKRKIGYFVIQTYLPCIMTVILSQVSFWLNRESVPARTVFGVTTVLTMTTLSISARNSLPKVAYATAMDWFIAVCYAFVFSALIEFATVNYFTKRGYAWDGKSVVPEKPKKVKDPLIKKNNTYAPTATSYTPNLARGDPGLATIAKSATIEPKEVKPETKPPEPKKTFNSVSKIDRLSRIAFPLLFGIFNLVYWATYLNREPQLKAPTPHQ
T2 sequence (P63079 26-473 partner): as the sequence (P63079 26-473 partner) above
T2 sequence (P18508 39-466): as the sequence (P18508 39-466) above
T4 sequence (P23576 29-451): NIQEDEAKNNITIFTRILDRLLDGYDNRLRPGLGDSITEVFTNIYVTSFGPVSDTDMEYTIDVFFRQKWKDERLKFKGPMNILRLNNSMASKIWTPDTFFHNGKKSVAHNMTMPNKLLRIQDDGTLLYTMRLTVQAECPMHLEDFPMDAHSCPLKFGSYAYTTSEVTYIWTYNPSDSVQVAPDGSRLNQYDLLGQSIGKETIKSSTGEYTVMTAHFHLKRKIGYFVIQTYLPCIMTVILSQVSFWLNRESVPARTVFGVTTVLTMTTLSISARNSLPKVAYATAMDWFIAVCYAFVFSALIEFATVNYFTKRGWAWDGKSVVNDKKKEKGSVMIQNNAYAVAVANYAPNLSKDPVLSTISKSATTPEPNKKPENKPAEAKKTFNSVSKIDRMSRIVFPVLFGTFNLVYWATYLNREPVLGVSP
T4 sequence (P63079 26-473 partner): as the sequence (P63079 26-473 partner) above
T4 sequence (P18508 39-466): as the sequence (P18508 39-466) above
T1 sequence (P23576 29-451): as the sequence (P23576 29-451) above
T1 sequence (P63079 26-473 partner): as the sequence (P63079 26-473 partner) above
T1 sequence (P18508 39-466): as the sequence (P18508 39-466) above

For C#Cc1ccc2c(c1)C(c1ccccc1F)=N[C@H](C)c1c(C(=O)OCC)ncn1-2 [SH-053-2′F-R-CH3], the “lower affinity compared to the S isomer, α2-containing receptors” value [1] is listed as 30 fold, the “binding to GABAA receptors (in words)” value (GABAA receptors) is listed as “high affinity” and the “lower affinity compared to the S isomer, α1-, α3-, and α5-containing receptors” value [2] is listed as 3–5 fold.
For C#Cc1ccc2c(c1)C(c1ccccc1F)=N[C@@H](C)c1c(C(=O)OCC)ncn1-2 [SH-053-2′F-S-CH3], the “binding to GABAA receptors (in words)” value (GABAA receptors) is listed as “high affinity”.
In the case of CCOC(=O)c1ncn2c1[C@@H](C)N=C(c1ccccc1F)c1cc(Br)ccc1-2 [compound 1-R], the “modulation of GABA-induced chloride ion flux (in words)” value (α2β3γ2-GABAA receptors) is reported as “positive allosteric modulators”, the Ki [3] is reported as 273 ± 41 nM and the Ki [4] is reported as 501 ± 79 nM. The “modulation of GABA currents in all receptor subtypes (in words)” value (shortened to “modulation of GABA currents”) [5] was “positive modulation”, the Ki [6] was 253 ± 31 nM and the “displacement of [3H]flunitrazepam at α2β3γ2 (in words)” value (from here on “displacement … at α2β3γ2 (in words)”) [6] was “retained its potential to displace the radioligand”. For the same compound, the “displacement of [3H]flunitrazepam in all receptor subtypes (in words)” value [7] was “potently replaced”, the Ki [8] was 56 ± 8 nM and the “preference / selectivity for α5-containing receptors” value [8] was roughly 5 fold.
For CCOC(=O)c1ncn2c1[C@H](C)N=C(c1ccccc1F)c1cc(Br)ccc1-2 [compound 1-S], the “modulation of GABA-induced chloride ion flux (in words)” value (α2β3γ2-GABAA receptors) was “positive allosteric modulators”, the Ki [3] was 190 ± 55 nM and the Ki [4] was 136 ± 24 nM. The “modulation of GABA currents” value [5] was “positive modulation”, the Ki [6] was 67 ± 9 nM and the “displacement … at α2β3γ2 (in words)” value [6] was “intermediate to high binding affinities”. For the same compound, the “displacement of [3H]flunitrazepam in all receptor subtypes (in words)” value [7] was “potently replaced”, the Ki [8] was 17 ± 5 nM and the “preference / selectivity for α5-containing receptors” value [8] was greater than 4 fold.
For C#Cc1ccc2c(c1)C(c1ccccc1)=N[C@H](C)c1nnc(C)n1-2 [compound 2-R], the “modulation of GABA-induced currents at 10 μM” value (α2β3γ2-GABAA receptors; drug 10 μM) was “slight positive modulation”, the “activity in the oocyte assay at drug concentrations of ≤1 μM” value (α2β3γ2-GABAA receptors) was “complete loss of activity” and the Ki [3] was greater than 10000 nM. For the same compound, the Ki [4] was greater than 10000 nM, the “modulation of GABA currents” value [5] was “mainly modulatory silent” and the Ki [6] was greater than 10000 nM. The “displacement … at α2β3γ2 (in words)” value [6] was “inactive”, the “displacement of [3H]flunitrazepam in all receptor subtypes (in words)” value [7] was “failed to displace” and the Ki [8] was greater than 10000 nM.
In the case of C#Cc1ccc2c(c1)C(c1ccccc1)=N[C@@H](C)c1nnc(C)n1-2 [compound 2-S], the “modulation of GABA-induced chloride ion flux (in words)” value (α2β3γ2-GABAA receptors) is reported as “positive allosteric modulators”, the Ki [3] is reported as 663 ± 21 nM and the Ki [4] is reported as 656 ± 110 nM. The “modulation of GABA currents” value [5] was “positive modulation”, the Ki [6] was 164 ± 15 nM and the “displacement … at α2β3γ2 (in words)” value [6] was “intermediate to high binding affinities”. The “subtype selectivity of binding (in words)” value [7] was “significant higher binding affinities in α2 and α5 GABAAR subtypes than in α1 and α3 subtypes”, the “displacement of [3H]flunitrazepam in all receptor subtypes (in words)” value [7] was “potently replaced” and the Ki [8] was 80 ± 4 nM.
For C[C@H]1N=C(c2ccccc2)c2cc(Br)ccc2NC1=O [compound 3-R], the “activity in the oocyte assay at drug concentrations of ≤1 μM” value (α2β3γ2-GABAA receptors) was “complete loss of activity”, the Ki [3] was greater than 10000 nM and the Ki [4] was greater than 10000 nM. For the same compound, the “modulation of GABA currents” value [5] was “mainly modulatory silent”, the Ki [6] was greater than 10000 nM and the “displacement … at α2β3γ2 (in words)” value [6] was “inactive”. For the same compound, the “displacement of [3H]flunitrazepam in all receptor subtypes (in words)” value [7] was “failed to displace” and the Ki [8] was greater than 10000 nM.
With C[C@@H]1N=C(c2ccccc2)c2cc(Br)ccc2NC1=O [compound 3-S] the “modulation of GABA-induced chloride ion flux (in words)” value (α2β3γ2-GABAA receptors) was “positive allosteric modulators”, the Ki [3] was 64 ± 2 nM and the Ki [4] was 102 ± 7 nM. The “modulation of GABA currents” value [5] was “positive modulation”, the Ki [6] was 61 ± 10 nM and the “displacement … at α2β3γ2 (in words)” value [6] was “intermediate to high binding affinities”. For the same compound, the “subtype selectivity of binding (in words)” value [7] was “low subtype selectivity”, the “displacement of [3H]flunitrazepam in all receptor subtypes (in words)” value [7] was “potently replaced” and the Ki [8] was 31 ± 5 nM.
